We go through one compound from US20130202629A1, “USES OF PHOSPHOLIPID CONJUGATES OF SYNTHETIC TLR7 AGONISTS” (The Regents of the University of California, priority 2010, published 2013).

The nature of series [1]: Nanoparticle size and stability in PBS (Malvern Zetasizer). The class given is physicochemical. Particulars: 50 μM or 100 μM. As to the method: 1V270 was dissolved in Phosal 50 PG (Phospholipid Gmbh, Cologne, Germany) to make a 20× concentrated solution. The Phosal 50 PG-1V270 mixture was further diluted (1:19) with nanopure water to make a 5% Phosal 50 PG:water suspension. The suspension was vortexed vigorously and sonicated in a sonicating bath for 10 minutes. The suspension was further sonicated with a probe sonicater (Branson Sonifier Cell Disrupter 185) at 30% power for a total of 30 seconds at 10 second intervals with 10 seconds rest between so as to not overheat the suspension. Finally, the suspension was passed through a 100 nm filter with syringe extruder a total of 10 times back and forth. The final nanoparticles were analyzed with a Malvern Zetasizer to check size distribution. The resulting particles may be referred to as nanoliposomes (a submicron bilayer lipid vesicle) (see Chapter 2 by Mozafari in: Liposomes, Methods in Molecular Biology, vol. 605, V. Weissing (ed.), Humana Press, the disclosure of which is incorporated by reference herein). Nanoliposomes provide more surface area and may increase solubility, bioavailability and targeting.
UV-1V270 particles were diluted in PBS to 50 μM (A) or 100 μM (B) and particle size measured over time. […] The particle size of UV-1V270 in PBS was relatively constant with an average of about 110 nm regardless of concentration.

For the next series, the target named is T1, TLR7 (Mus musculus, UniProt P58681).
T1 construct: BMDM were prepared from C57BL/6 and TLR7 deficient mice; endogenous in cells; host or cells: RAW264.7 (ATCC); bone marrow derived macrophages from C57BL/6 mice
T1 sequence (P58681 27-1050): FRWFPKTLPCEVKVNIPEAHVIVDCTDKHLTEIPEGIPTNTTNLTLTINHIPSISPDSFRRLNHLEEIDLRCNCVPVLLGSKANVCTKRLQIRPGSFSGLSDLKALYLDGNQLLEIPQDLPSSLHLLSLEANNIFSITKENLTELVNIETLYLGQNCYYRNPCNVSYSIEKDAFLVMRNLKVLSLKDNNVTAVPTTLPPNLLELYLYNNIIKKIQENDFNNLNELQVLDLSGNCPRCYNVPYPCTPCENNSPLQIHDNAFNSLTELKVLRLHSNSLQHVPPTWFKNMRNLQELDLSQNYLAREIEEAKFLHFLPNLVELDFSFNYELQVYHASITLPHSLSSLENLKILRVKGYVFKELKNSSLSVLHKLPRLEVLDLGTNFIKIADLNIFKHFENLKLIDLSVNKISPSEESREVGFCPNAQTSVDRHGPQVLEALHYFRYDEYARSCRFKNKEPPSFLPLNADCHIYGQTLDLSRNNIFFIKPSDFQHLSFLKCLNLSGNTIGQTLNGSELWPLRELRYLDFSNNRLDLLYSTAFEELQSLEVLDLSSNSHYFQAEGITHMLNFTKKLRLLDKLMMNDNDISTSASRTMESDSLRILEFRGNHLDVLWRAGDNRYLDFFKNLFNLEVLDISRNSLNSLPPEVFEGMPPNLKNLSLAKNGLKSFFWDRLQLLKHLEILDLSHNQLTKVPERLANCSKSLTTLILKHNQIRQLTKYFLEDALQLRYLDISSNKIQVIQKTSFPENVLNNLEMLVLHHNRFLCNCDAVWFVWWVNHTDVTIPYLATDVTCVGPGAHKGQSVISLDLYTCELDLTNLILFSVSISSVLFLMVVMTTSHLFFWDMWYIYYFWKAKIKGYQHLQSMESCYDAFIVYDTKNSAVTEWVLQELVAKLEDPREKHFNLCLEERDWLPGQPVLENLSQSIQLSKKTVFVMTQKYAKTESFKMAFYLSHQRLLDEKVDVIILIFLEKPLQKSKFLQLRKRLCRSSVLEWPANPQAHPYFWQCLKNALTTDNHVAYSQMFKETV
Nature of the series: In vitro cytokine induction (TNF-alpha, IL-6, IL-12; ELISA) in murine macrophages: RAW264.7 cells and BMDM. Particulars: normalized to the molar level of the unconjugated agonist (SM). The class given is cell-based. As to the method:
In vitro measurements of cytokine induction were performed using the mouse leukemic monocyte macrophage cell line, RAW264.7. […] BMDM were prepared from C57BL/6 and TLR7 deficient mice as described in Wu, C. C et al., “Immunotherapeutic activity of a conjugate of a Toll-like receptor 7 ligand”, Proc. Natl. Acad. Sci. USA, 104:3990 (2007).
In general, RAW264.7 cells or BMDM were incubated with various concentrations of conjugates for 18 hours at 37° C., 5% CO2 and culture supernatants were collected. The levels of cytokines (IL-6, IL-12 or TNF-α in the supernatants were determined by ELISA (BD Biosciences Pharmingen, La Jolla, Calif.) (Cho, H. J et al., “Immunostimulatory DNA-based vaccines induce cytotoxic lymphocyte activity by a T-helper cell-independent mechanism” [see comments], Nat. Biotechnol., 18:509 (2000)), and the results presented in FIGS. 2A-D. Data are mean±SEM of triplicates and are representative of three independent experiments. Minimum detection levels of these cytokines were 15 pg/mL.
TNFα levels were measured (see FIG. 2A) by incubating approximately 1×10^6/mL RAW 264.7 cells with the various conjugates or controls, as described above. IL-6 and IL-12 levels were measured (see FIGS. 2B-D) by incubating 0.5×10^6/mL BMDM with the various conjugates or controls, as described above. […]
(ELISA stands for enzyme-linked immunosorbent assay.)

A short description of another series: Solubility. Format: physicochemical.
In another series the test system is C57BL/6 mice. In words: In vivo evaluation of adverse effects after OVA plus TLR7 conjugate immunization. As to conditions: OVA mixed with conjugate, 10 nmoles per mouse.

Turning to `CCCCCCCC/C=C\CCCCCCCC(=O)OCC(COP(=O)(O)OCCNC(=O)c1ccc(Cn2c(=O)[nH]c3c(N)nc(OCCOC)nc32)cc1)OC(=O)CCCCCCC/C=C\CCCCCCCC` (stereo not drawn) [Compound 6, 2-(4-((6-amino-2-(2-methoxyethoxy)-8-oxo-7H-purin-9(8H)-yl)methyl)benzamido)ethyl 2,3-bis(oleoyloxy)propyl phosphate], the “nanoparticle stability over time” value in series [1] is recorded as “generally stable over time”. In series [1] (regardless of concentration), the “particle size, average diameter” value is “about 110 nm”. For the same compound, the “potency as cytokine inducer relative to the unconjugated agonist” value at TLR7 amounted to 10 fold. Moreover, in “Solubility” (aqueous solution / suitable solvents for testing), the “solubility, in words” value is recorded as “difficulty in dissolution”. The “upper limit of solubility” value in “Solubility” (in PBS) is around 100 µM. In addition, in the series with C57BL/6 mice, the “average body weights versus mice injected saline” value was “No significant differences”.
